We go through one compound from patent publication US20230034978A1, “PROCESS FOR MEASURING EFFICACY OF PAIN THERAPY” (priority 2021, published 2023).

One assay deals with peripheral ONP. The following applies: lidocaine injection; reference 12; cited from earlier work.
For assay [1], the system named is CMi fibers (axon flare) in rhesus monkeys. In words: DLss induced axon flare before and after intradermal lidocaine injection. It is filed as in vivo. The following applies: intradermal 2.0% lidocaine injection; four rhesus monkeys; saline subdermal injection as control. The text has this: Lidocaine is a wide spectrum sodium channel blocker that is used clinically as a dermal patch or intradermal injection 97-99 for treatment of peripheral neuropathic pain 3, 99. […] C and Aδ fibers are differentially affected by lidocaine treatment 99-101, and suppression of repetitive CMi activation that mimics spontaneous activity is a potent consequence of lidocaine treatment 100. Flare response in rhesus monkeys, a primate animal model for human neuropathic pain generation and nociceptor dynamics was similar to that observed in healthy subjects (FIG. 2). A total of four monkeys were tested. DLss induced flare was evaluated before and after intradermal 2.0% lidocaine injection and saline subdermal injection was used as a control. […]
• Diode laser for selective stimulation (DLss) testing of C:Aδ ratio. […] Skin temperature on the dorsal foot will be monitored and maintained at 32-33° C. using periodic heating pad warming. • Laser detection and pain thresholds (separately for Aδ and C fiber stimulation) were quantified using the “method of levels” on a 6×6 cm stimulus grid drawn on the foot dorsum, shifting location and using a series of ascending stimulations starting from sub-detection intensity, increasing by fixed increments with the highest stimulation determined by participant reporting a painful sensation with intensity between 30 and 40 on the 0-100 VAS. […]

Assay [2] deals with participants with peripheral ongoing neuropathic pain (p-ONP) / peripheral neuropathy. In words: Lidocaine patch cross-over trial (Example 2A): pain VAS and DLss C:Aδ ratio. The assay is classed as in vivo, human. To be noted: lidocaine patch (5%) or placebo patch, 7 day treatment, p<0.01. As to the method: 70 p-ONP participants to with mean pain VAS >40 mm who undergo baseline DLss, and pain measures. Response to VAS was compared to change in C:Aδ ratio following treatment with peripherally active lidocaine patch (5%), or placebo patch using a 7 day treatment cross-over design with 14 day washout between treatment arms.
• Diode laser for selective stimulation (DLss) testing of C:Aδ ratio. Detection and pain thresholds for fiber-selective laser stimulation was performed with Lass-10M, as previously described (patents U.S. Pat. No. 7,402,167B2 and U.S. Pat. No. 8,029,553B2). The foot dorsum was shaved to limit light absorption and overheating. Skin temperature on the dorsal foot will be monitored and maintained at 32-33° C. using periodic heating pad warming. • Laser detection and pain thresholds (separately for Aδ and C fiber stimulation) were quantified using the “method of levels” on a 6×6 cm stimulus grid drawn on the foot dorsum, shifting location and using a series of ascending stimulations starting from sub-detection intensity, increasing by fixed increments with the highest stimulation determined by participant reporting a painful sensation with intensity between 30 and 40 on the 0-100 VAS. […] Blood perfusion was recorded by Speckle Imaging (PeriCam PSI System, Perimed, Sweden), following DLss stimulus using the C fiber protocol above. […]

In the case of `CCN(CC)CC(=O)Nc1c(C)cccc1C` [lidocaine], in the assay with peripheral ONP, the “block of peripheral ONP” value was “completely block”. Besides, the “axon flare area after injection compared to saline” value in assay [1] is “markedly reduced”. For the same compound, in assay [2], the “Change in C:Aδ ratio, lidocaine versus placebo treatment groups” value was “distinguish lidocaine from placebo treatment groups”.
